Assay results as given in patent US12201626B2, “Bifunctional compositions for the treatment of cancer” (ARMACEUTICA, INC., priority 2018, dated 2025).
Read-outs that look alike come from different tables or passages of the source.

Experiments:
[1] = Differential Nuclear Staining (DNS) cytotoxicity assay, panel; assay type: cell-based; settings: human, read-out: selective cytotoxicity index (SCI)
Description: (§1) In this study, 19 human cell lines were utilized: seven breast human cancer; MDA-MB-468, MCF-7, T47D, HCC1419, HCC70, MDA-MB-231 (triple negative) and its lung metastatic (LM) derivative MDA-MB-231 LM2; four human leukemia/lymphoma cells, HL-60, Ramos, Jurkat and CEM, three human ovarian cancer, Ovcar 8, Ovcar 5 and Ovcar 3, one lung cancer, one melanoma and one pancreatic cell line, A549, A375, Panc-1 respectively. Furthermore, for selectivity/comparative purposes, the cell lines from the non-cancerous origin, MCF-10A, HS-27 were also included. The culture media used for MDA-MB-231, MDA-MB-231 LM2, MDA-MB-468, MCF-7, A549, A375, Panc-1, and HS-27 was DMEM (Hyclone, Logan UT), whereas for T47D, HCC-1419, HCC-70, HL-60, Ramos, Jurkat, CEM, Ovcar 8 and Ovcar 5 was RPMI-1640 (Hyclone, Logan UT). Consistently, both DMEM and RPMI culture media was supplemented with 10% heat-inactivated fetal bovine serum (FBS: Hyclone), 100 U/ml penicillin and 100 μg/ml streptomycin (Thermo Fisher Scientific Inc., Rockford, IL). […] The adherent cells, growing in the logarithmic growth phase at a 60-75% confluence, were detached by utilizing a HyQtase enzyme (Thermo Fisher Scientific Inc.), counted and seeded in 96-well plates at 10,000 cells density in 100 μL of culture medium per well. […]
(§2) To analyze the potential cytotoxic activity of PND, the Differential Nuclear Staining (DNS) assay, which was validated for high-throughput screening (HTS) using live-cell bio-imaging was utilized. […] Montages of 2 by 2 images were captured directly from each individual well of the culture plates by using a multi-well plate reader IN Cell 2000 analyzer, an HTS and high-content analysis (HCA) system (GE Healthcare Life Sciences, Pittsburgh, PA). […] Each experimental data point, as well as controls, were assessed in triplicates. […]
(§3) The selective cytotoxicity index (SCI) denotes the capability of a given experimental compound to kill cancer cells more efficiently while inflicting minimal toxicity to non-cancerous origin cells. Thus, the SCI for PND was calculated as follow: SCI=CC50 of non-cancerous cells/CC50 of cancer cells.

[2] = test system: panel of human cancer cell lines; test: as above; assay type: cell-based; settings: Homo sapiens; 72 h, DNS assay; read-out: CC50 over all cancer cell lines tested
Description: as §1, §2, §3

[3] = test system: malignancy that was metastatic or unresectable; test: Open-label study of oral PND in terminally-ill canine cancer patients; assay type: in vivo
Description: Due to ethical concerns of treating terminally-ill dogs, there was no placebo group.
The secondary outcomes were: anti-tumor activity, malignancy-associated symptom relief, and the safety and tolerability of PND.
Case 1, Mast cell carcinoma: Dog (Golden Retriever), female, 6 years old, 28.7 kg. Cancer was confirmed by histopathology report. In mid-May 2019 the administration of oral PND to the dog began after which patient received no other cancer medication. Veterinarian expected survival length of between 4 and 6 months at the time of study entry. Patient received 23 mg/kg/day PND (325 mg in the morning and 325 mg in the evening).
Case 2, Osteosarcoma: Dog (Saint Bernard), male, 5 years old, 49.7 kg. On 17 May 2019 the administration of oral PND began after which the patient received no other cancer medication. The veterinarian expected a survival length of between 4 and 6 months at the time of study entry. Patient received 20 mg/kg/day PND (325 mg in the morning and 650 mg in the evening).
Case 3, spindle cell sarcoma: Dog (Border Collie), male, 9 years old, 28.5 kg. In 2014 the dog was diagnosed with a low-grade spindle cell sarcoma, and was due to be euthanized on 11 Feb. 2019, with a life expectancy of 1-2 weeks. Instead, the veterinarian began the administration of oral PND on 11 Feb. 2019 after which patient received no other cancer medication. Patient received 15 mg/kg/day PND (215 mg in the morning and 215 mg in the evening).
Case 4, non-Hodgkin lymphoma: Dog (Boxer), female, 27 kg, 11 years old. Cancer was confirmed by biopsy report. In December 2018 the administration of oral PND to the dog began after which patient received no other cancer medication. Patient received 15 mg/kg/day PND (210 mg in the morning and 210 mg in the evening). However, the administration of PND stopped in February 2019 (due to shipping problems from the USA to Canada) and never resumed.
Case 5, mast cell tumor: Dog, male, 27.9 kg. Cancer was confirmed by histopathology report. A tumor was surgically excised from tongue, and there was no clean border. In December 2018 the administration of oral PND began after which the patient received no other cancer medication. Patient received 15 mg/kg/day PND (210 mg in the morning and 210 mg in the evening).

Compound: COC1=CC=C2Nc3cc(Cl)ccc3C(N=C3C=C(CN4CCCC4)C(=O)C(CN4CCCC4)=C3)=C2N1 [PND, 4-[(7-chloro-2-methoxy-1,5-dihydrobenzo[b][1,5]naphthyridin-10-yl)imino]-2,6-bis(pyrrolidin-1-ylmethyl)cyclohexa-2,5-dien-1-one]
- selectivity ratio at 72 h ([1]; leukemia/lymphoma cells): 1.43 to 3.47
- selectivity ratio at 72 h ([1]; several breast cancer cells vs non-cancerous cells): > 2.5
- CC50 [2]: 1.6 to 9.4 µM
- study-drug related adverse events ([3]; Case 1, mast cell carcinoma, 23 mg/kg/day oral): no reports of any study-drug related adverse events
- survival status ([3]; Case 1, as of June 2019, start mid-May 2019): still alive
- possible study-drug related adverse events ([3]; Case 2, osteosarcoma, 20 mg/kg/day oral, resolved with diphenhydramine): drooling, facial swelling, and vomiting
- survival status ([3]; Case 2, at June 2019, start 17 May 2019): still alive
- study-drug related adverse events ([3]; Case 3, spindle cell sarcoma, 15 mg/kg/day oral): no reports of any study-drug related adverse events except initial vomiting
- survival lengthened by ([3]; Case 3, life expectancy 1-2 weeks at entry): 3 months
- reduction of volume of each tumor at follow-up ([3]; Case 3, three tumors): approximately 20%
- survival lengthened by ([3]; Case 4): 2.5 months
- study-drug related adverse events ([3]; Case 4, non-Hodgkin lymphoma, 15 mg/kg/day oral): no reports of any study-drug related adverse events
- tumor shrinkage ([3]; Case 4, neck tumor, by March 2019): 70%
- tumor volume at follow-up ([3]; Case 5, mast cell tumor, 15 mg/kg/day oral, 2 cm×1 cm versus 2 cm×1 cm): remained the same volume
- survival status ([3]; Case 5, as of June 2019, start December 2018): still alive
